This series has as its target thrombin (Homo sapiens, UniProt P00734). Put plainly: on-chip binding of TAMRA-labeled thrombin to bead-displayed oligonucleotides on Ion Torrent sequencing chips, fluorescence imaging. The settings on record: after washing, fluorescence imaging of wells, 20mer GT randomer library doped with thrombin aptamer. An excerpt:
Embodiments of the present invention reduce uncertainty due to amplification-based biases, blind spots and inference-based methods of deconvoluting candidate sequences through direct, on-chip analysis of candidate sequences and their target-binding properties. […] We obtained DNA libraries containing a 20mer GT randomer region flanked by Ion Torrent adaptor sequences (ITD, Coralville, Iowa). Libraries were doped with increasing amounts of the thrombin aptamer (with adaptors). […] The number of full-length reads correlates with the amount of thrombin aptamer doped into GT randomer libraries.

With “GGTTGGTGTGGTTGG (DNA, backbone not given here) [thrombin aptamer]”, the “intensity of the TAMRA signal” value is reported as “highest” and the “residence time of the TAMRA signal” value is on record as “highest”.

The values above are taken from patent publication US9746466B2, “Integrated compound discovery systems and methods” (Wake Forest University, priority 2011, dated 2017).
